Measured values taken from patent publication US10800770B1, “Chroman derivatives having estrogen receptor degradation activity and uses thereof” (ACCUTAR BIOTECHNOLOGY INC., priority 2019, dated 2020).

Each compound was assayed against T1, ERα (Homo sapiens, UniProt P03372) (assay: ERα degradative activity in T47D cells (Western blot, 6 hours after administration)). Settings: T47D cell line, ERα degradation.
T1 construct: endogenous in cells; host or cells: T47D
T1 sequence (P03372 1-595): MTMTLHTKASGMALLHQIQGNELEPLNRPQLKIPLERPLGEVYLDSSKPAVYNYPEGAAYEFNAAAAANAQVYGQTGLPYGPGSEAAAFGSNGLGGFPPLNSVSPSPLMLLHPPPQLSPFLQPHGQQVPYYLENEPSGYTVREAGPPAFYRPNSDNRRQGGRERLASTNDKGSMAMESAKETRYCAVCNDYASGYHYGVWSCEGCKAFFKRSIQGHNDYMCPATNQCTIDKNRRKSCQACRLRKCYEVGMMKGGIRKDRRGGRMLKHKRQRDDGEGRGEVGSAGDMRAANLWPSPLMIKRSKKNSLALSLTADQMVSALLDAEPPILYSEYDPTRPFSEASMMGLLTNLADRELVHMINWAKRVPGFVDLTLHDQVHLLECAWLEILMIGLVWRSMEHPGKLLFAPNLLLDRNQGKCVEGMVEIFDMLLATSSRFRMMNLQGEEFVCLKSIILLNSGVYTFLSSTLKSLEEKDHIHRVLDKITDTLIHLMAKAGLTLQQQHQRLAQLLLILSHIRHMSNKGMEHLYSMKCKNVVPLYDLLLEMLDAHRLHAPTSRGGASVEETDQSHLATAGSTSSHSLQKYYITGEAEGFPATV
Format: cell-based
Protocol: T47D cells were plated in 24-well plates at 1.5×10^5 cells/well in the RPMI growth medium containing 10% FBS and 1× Penicillin Streptomycin. MCF7 cells were plated in 24-well plates at 1.5×10^5 cells/well in the DMEM growth medium containing 10% FBS and 1× Penicillin Streptomycin. CAMA1 cells were plated in 24-well plates at 2×10^5 cells/well in the RPMI growth medium containing 20% FBS and 1× Penicillin Streptomycin. They were then incubated at 37° C. overnight. The following day, the test compound was administered to the cells by using 1000× compound stock solution prepared in DMSO at various concentrations. After administration of the compound, the cells were then incubated at 37° C. for 6 hours.
Upon completion, the cells were washed with PBS and protein was collected in Laemmli sample buffer (1×; VWR International). Proteins in cell lysate were separated by SDS-PAGE and transferred to Odyssey nitrocellulose membranes (Licor) with Iblot® dry blotting transfer system (ThermoFisher). Nonspecific binding was blocked by incubating membranes with Intercept Blocking Buffer (Licor) for 1 hour at room temperature with gentle shaking. The membranes were then incubated overnight at 4° C. with Primary antibodies rabbit anti-ER (Cell Signaling, 8644) and mouse anti-GAPDH (1:5,000, Santa Cruz Biotechnology, sc-47724) diluted in Intercept Blocking Buffer containing 0.1% Tween 20. After washing 3 times with TBS-T, the membranes were incubated with IRDye® 800CW goat anti-mouse IgG (1:20,000, Licor) or IRDye® 800CW goat anti-rabbit IgG (1:20,000, Licor) for 1 hour. After TBS-T washes, membranes were rinsed in TBS and scanned on Odyssey® CLx Imaging System (Licor). The bands were quantified using Image Studio™ Software (Licor).
O=C1CC[C@H](N2Cc3cc(N4CCN(CC5CCN(c6ccc(C7c8ccc(O)cc8OC[C@@H]7c7ccccc7)cc6)CC5)CC4)ccc3C2=O)C(=O)N1 (relative stereo) [Compound 32, cis-(S)-3-(5-(4-((1-(4-(7-hydroxy-3-phenylchroman-4-yl)phenyl)piperidin-4-yl)methyl)piperazin-1-yl)-1-oxoisoindolin-2-yl)piperidine-2,6-dione] showed a DC50 of 2.4 nM.
Cc1cccc([C@H]2COc3cc(O)ccc3C2c2ccc(N3CCC(CN4CCN(c5ccc6c(c5)CN([C@H]5CCC(=O)NC5=O)C6=O)CC4)CC3)c(F)c2)c1 (relative stereo) [Compound 52, cis-(S)-3-(5-(4-((1-(2-fluoro-4-(7-hydroxy-3-(m-tolyl)chroman-4-yl)phenyl)piperidin-4-yl)methyl)piperazin-1-yl)-1-oxoisoindolin-2-yl)piperidine-2,6-dione] showed a DC50 of 5.6 nM.
Work on COc1cccc([C@H]2COc3cc(O)ccc3C2c2ccc(N3CCC(CN4CCN(c5ccc6c(c5)CN([C@H]5CCC(=O)NC5=O)C6=O)CC4)CC3)cc2)c1 (relative stereo) [Compound 56, cis-(S)-3-(5-(4-((1-(4-(7-hydroxy-3-(3-methoxy-phenyl)chroman-4-yl)phenyl)piperidin-4-yl)methyl)piperazin-1-yl)-1-oxoisoindolin-2-yl)piperidine-2,6-dione] yielded a DC50 of 1.7 nM.
For COc1cc([C@H]2COc3cc(O)ccc3[C@H]2c2ccc(N3CCC(CN4CCN(c5ccc6c(c5)CN([C@H]5CCC(=O)NC5=O)C6=O)CC4)CC3)cc2)ccc1F (relative stereo) [Compound 63, cis-(S)-3-(5-(4-((1-(4-(3-(4-fluoro-3-methoxyphenyl)-7-hydroxychroman-4-yl)phenyl)piperidin-4-yl)methyl)piperazin-1-yl)-1-oxoisoindolin-2-yl)piperidine-2,6-dione], the DC50 was 2.1 nM.
With COc1cccc([C@H]2COc3cc(O)ccc3[C@H]2c2ccc(N3CCC(CN4CCN(c5cc6c(cc5F)C(=O)N([C@H]5CCC(=O)NC5=O)C6)CC4)CC3)cc2)c1 (relative stereo) [Compound 74, cis-(S)-3-(6-fluoro-5-(4-((1-(4-(7-hydroxy-3-(3-methoxy-phenyl)chroman-4-yl)phenyl)piperidin-4-yl)methyl)piperazin-1-yl)-1-oxoisoindolin-2-yl)piperidine-2,6-dione] the DC50 was 7.3 nM.
Work on O=C1CC[C@H](N2Cc3cc(N4CCN(CC5CCN(c6ccc([C@@H]7c8ccc(O)cc8OCC7c7ccc(F)c(F)c7)cc6F)CC5)CC4)ccc3C2=O)C(=O)N1 (relative stereo) [Compound 84, cis-(S)-3-(5-(4-((1-(4-(3-(3,4-difluorophenyl)-7-hydroxychroman-4-yl)-2-fluoro-phenyl)piperidin-4-yl)methyl)piperazin-1-yl)-1-oxoisoindolin-2-yl)piperidine-2,6-dione] yielded a DC50 of 9.3 nM.
For O=C1CC[C@H](N2Cc3cc(N4CCN(CC5CCN(c6ccc([C@@H]7c8ccc(O)cc8OCC7c7ccccc7)cc6F)CC5)CC4)ccc3C2=O)C(=O)N1 (relative stereo) [Compound 85, cis-(S)-3-(5-(4-((1-(2-fluoro-4-(7-hydroxy-3-phenylchroman-4-yl)phenyl)piperidin-4-yl)methyl)piperazin-1-yl)-1-oxoisoindolin-2-yl)piperidine-2,6-dione], the DC50 was 3 nM.
COc1ccc(C2COc3cc(O)ccc3[C@H]2c2ccc(N3CCC(CN4CCN(c5ccc6c(c5)CN([C@H]5CCC(=O)NC5=O)C6=O)CC4)CC3)cc2)cc1 (relative stereo) [Compound 89, cis-(S)-3-(5-(4-((1-(4-(7-hydroxy-3-(4-methoxy-phenyl)chroman-4-yl)phenyl)piperidin-4-yl)methyl)piperazin-1-yl)-1-oxoisoindolin-2-yl)piperidine-2,6-dione] was tested, and the DC50 was 0.7 nM.
Compound COc1ccc(C2COc3cc(O)ccc3[C@H]2c2ccc(N3CCC(CN4CCN(c5cc6c(cc5F)C(=O)N([C@H]5CCC(=O)NC5=O)C6)CC4)CC3)cc2)cc1 (relative stereo) [Compound 90, cis-(S)-3-(6-fluoro-5-(4-((1-(4-(7-hydroxy-3-(4-methoxy-phenyl)chroman-4-yl)phenyl)piperidin-4-yl)methyl)piperazin-1-yl)-1-oxoisoindolin-2-yl)piperidine-2,6-dione] has a DC50 of 9.6 nM.
For O=C1CCC(N2C(=O)c3ccc(N4CCN(CC5CCN(c6ccc(C7c8ccc(O)cc8OC[C@@H]7c7ccccc7)cc6)CC5)CC4)cc3C2=O)C(=O)N1 (stereo in doubt) [Compound 36, cis-2-(2,6-dioxopiperidin-3-yl)-5-(4-((1-(4-(7-hydroxy-3-phenylchroman-4-yl)phenyl)piperidin-4-yl)methyl)piperazin-1-yl)isoindoline-1,3-dione], the DC50 was > 10 nM.
Compound O=C1CC[C@H](N2C(=O)c3ccc(N4CCN(CC5CCN(c6ccc([C@@H]7c8ccc(O)cc8OCC7c7ccccc7)cc6F)CC5)CC4)cc3C2=O)C(=O)N1 (stereo in doubt) [Compound 87, cis-2-(2,6-dioxo-piperidin-3-yl)-5-(4-((1-(2-fluoro-4-(7-hydroxy-3-phenylchroman-4-yl)phenyl)piperidin-4-yl)methyl)piperazin-1-yl)isoindoline-1,3-dione] has a DC50 of 12.6 nM.
In the case of O=C1CC[C@H](N2Cc3cc(N4CCN(CC5CCN(c6ccc([C@@H]7c8ccc(O)cc8OC[C@@H]7c7ccccc7)cc6)CC5)CC4)ccc3C2=O)C(=O)N1 [Compound 33, (S)-3-(5-(4-((1-(4-((3S,4R)-7-hydroxy-3-phenylchroman-4-yl)phenyl)piperidin-4-yl)methyl)piperazin-1-yl)-1-oxoisoindolin-2-yl)piperidine-2,6-dione], the DC50 is reported as 0.3 nM.
In the case of O=C1CC[C@H](N2Cc3cc(N4CCN(CC5CCN(c6ccc([C@H]7c8ccc(O)cc8OC[C@H]7c7ccccc7)cc6)CC5)CC4)ccc3C2=O)C(=O)N1 [Compound 34, (S)-3-(5-(4-((1-(4-((3R,4S)-7-hydroxy-3-phenylchroman-4-yl)phenyl)piperidin-4-yl)methyl)piperazin-1-yl)-1-oxoisoindolin-2-yl)piperidine-2,6-dione], the DC50 is reported as > 100 nM.
O=C1CC[C@H](N2Cc3cc(N4CCN(CC5CCN(c6ccc([C@@H]7c8ccc(O)cc8OC[C@@H]7c7ccccc7)cc6F)CC5)CC4)c(F)cc3C2=O)C(=O)N1 [Compound 41, (S)-3-(6-fluoro-5-(4-((1-(2-fluoro-4-((3S,4R)-7-hydroxy-3-phenylchroman-4-yl)phenyl)piperidin-4-yl)methyl)piperazin-1-yl)-1-oxoisoindolin-2-yl)piperidine-2,6-dione] was tested, and the DC50 was 4 nM.
Compound O=C1CC[C@H](N2Cc3cc(N4CCN(CC5CCN(c6ccc([C@@H]7c8ccc(O)cc8OC[C@@H]7c7ccccc7)cc6)CC5)CC4)c(F)cc3C2=O)C(=O)N1 [Compound 42, (S)-3-(6-fluoro-5-(4-((1-(4-((3S,4R)-7-hydroxy-3-phenylchroman-4-yl)phenyl)piperidin-4-yl)methyl)piperazin-1-yl)-1-oxoisoindolin-2-yl)piperidine-2,6-dione] has a DC50 of 1.1 nM.
O=C1CC[C@H](N2Cc3cc(N4CCN(CC5CCN(c6ccc([C@H]7c8ccc(O)cc8OC[C@H]7c7ccccc7)cc6F)CC5)CC4)ccc3C2=O)C(=O)N1 [Compound 45, (S)-3-(5-(4-((1-(2-fluoro-4-((3R,4S)-7-hydroxy-3-phenylchroman-4-yl)phenyl)piperidin-4-yl)methyl)piperazin-1-yl)-1-oxoisoindolin-2-yl)piperidine-2,6-dione] was tested, and the DC50 was > 100 nM.
Compound Cc1cc([C@H]2COc3cc(O)ccc3[C@H]2c2ccc(N3CCC(CN4CCN(c5ccc6c(c5)CN([C@H]5CCC(=O)NC5=O)C6=O)CC4)CC3)c(F)c2)ccc1F [Compound 60, cis-(S)-3-(5-(4-((1-(2-fluoro-4-(3-(4-fluoro-3-methylphenyl)-7-hydroxychroman-4-yl)phenyl)piperidin-4-yl)methyl)piperazin-1-yl)-1-oxoisoindolin-2-yl)piperidine-2,6-dione] has a DC50 of 6.5 nM.
O=C1CC[C@H](N2Cc3cc(N4CCN(CC5CCN(c6ccc([C@@H]7c8ccc(O)cc8OC[C@@H]7c7ccccc7)cc6F)CC5)CC4)ccc3C2=O)C(=O)N1 [Compound 86, (S)-3-(5-(4-((1-(2-fluoro-4-((3S,4R)-7-hydroxy-3-phenylchroman-4-yl)phenyl)piperidin-4-yl)methyl)piperazin-1-yl)-1-oxoisoindolin-2-yl)piperidine-2,6-dione] was tested, and the DC50 was 0.5 nM.
